In PubChem BioAssay AID2060604 (Molecular Pharmacology Branch, DTP, NCI, 2025):
Where “and” joins values, the source holds several entries; their conditions need not be identical. Equal entries are not always repeated.

Test system: 379773-124-R-J2-PDC complex spheroids, viability % test/control
Assay: Anticancer human tumor 379773-124-R-J2-PDC patient-derived endometrial carcinoma cell line growth inhibition [CLK]
Settings: for viability, T/C: stronger effect = lower value; active = viability on the fitted dose curve at most 10% of control; inactive = the rest
Summary of the method: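 Multi-cell-type spheroids combined patient-derived tumor cells with HUVEC endothelial cells and human mesenchymal stem cells. Paired agents were dosed in half-log steps down from about clinical Cmax, or from 10 microM where Cmax was unknown.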

[1] = curve of first compound, second compound 0.0316 µM
[2] = curve of first compound, second compound 0.1 µM
[3] = curve of first compound, second compound 0.316 µM
[4] = curve of first compound, second compound 1 µM
[5] = curve of first compound, second compound 3.16 µM
[6] = curve of first compound, second compound 10 µM
[7] = second compound 0.0316 µM, first compound 0.0316 µM
[8] = second compound 0.0316 µM, first compound 0.1 µM
[9] = second compound 0.0316 µM, first compound 0.316 µM
[10] = second compound 0.0316 µM, first compound 1 µM
[11] = second compound 0.0316 µM, first compound 3.16 µM
[12] = second compound 0.0316 µM, first compound 10 µM
[13] = second compound 0.1 µM, first compound 0.0316 µM
[14] = second compound 0.1 µM, first compound 0.1 µM
[15] = second compound 0.1 µM, first compound 0.316 µM
[16] = second compound 0.1 µM, first compound 1 µM
[17] = second compound 0.1 µM, first compound 3.16 µM
[18] = second compound 0.1 µM, first compound 10 µM
[19] = second compound 0.316 µM, first compound 0.0316 µM
[20] = second compound 0.316 µM, first compound 0.1 µM
[21] = second compound 0.316 µM, first compound 0.316 µM
[22] = second compound 0.316 µM, first compound 1 µM
[23] = second compound 0.316 µM, first compound 3.16 µM
[24] = second compound 0.316 µM, first compound 10 µM
[25] = second compound 1 µM, first compound 0.0316 µM
[26] = second compound 1 µM, first compound 0.1 µM
[27] = second compound 1 µM, first compound 0.316 µM
[28] = second compound 1 µM, first compound 1 µM
[29] = second compound 1 µM, first compound 3.16 µM
[30] = second compound 1 µM, first compound 10 µM
[31] = second compound 3.16 µM, first compound 0.0316 µM
[32] = second compound 3.16 µM, first compound 0.1 µM
[33] = second compound 3.16 µM, first compound 0.316 µM
[34] = second compound 3.16 µM, first compound 1 µM
[35] = second compound 3.16 µM, first compound 3.16 µM
[36] = second compound 3.16 µM, first compound 10 µM
[37] = second compound 10 µM, first compound 0.0316 µM
[38] = second compound 10 µM, first compound 0.1 µM
[39] = second compound 10 µM, first compound 0.316 µM
[40] = second compound 10 µM, first compound 1 µM
[41] = second compound 10 µM, first compound 3.16 µM
[42] = second compound 10 µM, first compound 10 µM
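Note: compound exposure lasted seven days before the viability readout.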
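Throughout, for viability, T/C: 100% = DMSO vehicle control wells.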

C=C(F)C(=O)N1CCN(c2nc(OCC3CCCN3C)nc3c2CCN(c2cccc4cccc(Cl)c24)C3)CC1CC#N (stereo not drawn)
active: viability, T/C (compound 10 µM) 0.2% and 1.39%
inactive: viability, T/C (compound 0.0316 µM) 76.2% and 106% | viability, T/C (compound 0.1 µM) 93.9% and 84.4% | viability, T/C (compound 0.316 µM) 95% and 80.9% | viability, T/C (compound 1 µM) 92% and 98.5% | viability, T/C (compound 3.16 µM) 33.3% and 66.9%
2240 nM and 4260 nM: IC50 (curve of compound)

Nc1ccn(C2OC(CO)C(O)C2(F)F)c(=O)n1 (stereo not drawn)
< 31.6 nM: IC50 (curve of compound)
active: viability, T/C (compound 0.0316 µM) 6.4% and 4.58% | viability, T/C (compound 0.1 µM) 5.3% and 4.24% | viability, T/C (compound 0.316 µM) 6.69% and 3.96% | viability, T/C (compound 1 µM) 5.77% and 4.69% | viability, T/C (compound 3.16 µM) 4.84% and 3.97% | viability, T/C (compound 10 µM) 3.93% and 3.21%

COc1cccc2c1C(=O)c1c(O)c3c(c(O)c1C2=O)CC(O)(C(=O)CO)CC3OC1CC(N)C(O)C(C)O1 (stereo not drawn) + CNC(=O)c1ccc(Nc2nc(OC3CCCC3)c3c(-c4ccc5nc(C)oc5c4)c[nH]c3n2)c(OC)c1
inactive: viability, T/C [7] 31.1% | viability, T/C [13] 22.6% | viability, T/C [19] 25.9% | viability, T/C [25] 17.8% | viability, T/C [31] 12%
< 31.6 nM: IC50 [1] | IC50 [2] | IC50 [3] | IC50 [4] | IC50 [5] | IC50 [6]
active: viability, T/C [8] 6.01% | viability, T/C [9] 5.35% | viability, T/C [10] 3.7% | viability, T/C [11] 0.43% | viability, T/C [12] 0.22% | viability, T/C [14] 6.93% | viability, T/C [15] 5.94% | viability, T/C [16] 3.46% | viability, T/C [17] 0.36% | viability, T/C [18] 0.17% | viability, T/C [20] 4.93% | viability, T/C [21] 3.63% | viability, T/C [22] 2.73% | viability, T/C [23] 0.13% | viability, T/C [24] 0.11% | viability, T/C [26] 4.68% | viability, T/C [27] 3.73% | viability, T/C [28] 1.18% | viability, T/C [29] 0.15% | viability, T/C [30] 0.06% | viability, T/C [32] 5.12% | viability, T/C [33] 3.67% | viability, T/C [34] 1.27% | viability, T/C [35] 0.08% | viability, T/C [36] 0.12% | viability, T/C [37] 9.36% | viability, T/C [38] 5.57% | viability, T/C [39] 3.11% | viability, T/C [40] 1.07% | viability, T/C [41] 0.14% | viability, T/C [42] 0.23%

CC1COCCN1c1cc(C2(S(C)(=N)=O)CC2)nc(-c2ccnc3[nH]ccc23)n1 (stereo not drawn) + CNC(=O)c1ccc(Nc2nc(OC3CCCC3)c3c(-c4ccc5nc(C)oc5c4)c[nH]c3n2)c(OC)c1
active: viability, T/C [12] 9.32% | viability, T/C [30] 5.75% | viability, T/C [42] 4.37%
< 31.6 nM: IC50 [2] | IC50 [3] | IC50 [4] | IC50 [5] | IC50 [6]
1870 nM: IC50 [1]
inactive: viability, T/C [7] 78% | viability, T/C [8] 83.8% | viability, T/C [9] 86.2% | viability, T/C [10] 67.2% | viability, T/C [11] 34.5% | viability, T/C [13] 42.7% | viability, T/C [14] 44.6% | viability, T/C [15] 36.1% | viability, T/C [16] 42.7% | viability, T/C [17] 26% | viability, T/C [18] 9.26% | viability, T/C [19] 42.6% | viability, T/C [20] 38.5% | viability, T/C [21] 39.1% | viability, T/C [22] 41.5% | viability, T/C [23] 30.1% | viability, T/C [24] 12.7% | viability, T/C [25] 40.6% | viability, T/C [26] 36.1% | viability, T/C [27] 37% | viability, T/C [28] 36.5% | viability, T/C [29] 20.5% | viability, T/C [31] 27.9% | viability, T/C [32] 34% | viability, T/C [33] 31.9% | viability, T/C [34] 31.4% | viability, T/C [35] 21.4% | viability, T/C [36] 5.79% | viability, T/C [37] 29.7% | viability, T/C [38] 40.1% | viability, T/C [39] 28.9% | viability, T/C [40] 24.9% | viability, T/C [41] 24.2%
